Data reported in ChEMBL document CHEMBL4507319 (2021).

Experiments:
[1] = target: Cyclin-dependent kinase 4 (Homo sapiens) (UniProt P11802); conditions: Compound concentration 1000.0 nM
[2] = target: Homeodomain-interacting protein kinase 3 (Homo sapiens) (UniProt Q9H422); conditions: Compound concentration 1000.0 nM
[3] = target: T1, Serine/threonine-protein kinase TAO2 (Homo sapiens) (UniProt Q9UL54); conditions: Compound concentration 1000.0 nM
T1 sequence (whole entry): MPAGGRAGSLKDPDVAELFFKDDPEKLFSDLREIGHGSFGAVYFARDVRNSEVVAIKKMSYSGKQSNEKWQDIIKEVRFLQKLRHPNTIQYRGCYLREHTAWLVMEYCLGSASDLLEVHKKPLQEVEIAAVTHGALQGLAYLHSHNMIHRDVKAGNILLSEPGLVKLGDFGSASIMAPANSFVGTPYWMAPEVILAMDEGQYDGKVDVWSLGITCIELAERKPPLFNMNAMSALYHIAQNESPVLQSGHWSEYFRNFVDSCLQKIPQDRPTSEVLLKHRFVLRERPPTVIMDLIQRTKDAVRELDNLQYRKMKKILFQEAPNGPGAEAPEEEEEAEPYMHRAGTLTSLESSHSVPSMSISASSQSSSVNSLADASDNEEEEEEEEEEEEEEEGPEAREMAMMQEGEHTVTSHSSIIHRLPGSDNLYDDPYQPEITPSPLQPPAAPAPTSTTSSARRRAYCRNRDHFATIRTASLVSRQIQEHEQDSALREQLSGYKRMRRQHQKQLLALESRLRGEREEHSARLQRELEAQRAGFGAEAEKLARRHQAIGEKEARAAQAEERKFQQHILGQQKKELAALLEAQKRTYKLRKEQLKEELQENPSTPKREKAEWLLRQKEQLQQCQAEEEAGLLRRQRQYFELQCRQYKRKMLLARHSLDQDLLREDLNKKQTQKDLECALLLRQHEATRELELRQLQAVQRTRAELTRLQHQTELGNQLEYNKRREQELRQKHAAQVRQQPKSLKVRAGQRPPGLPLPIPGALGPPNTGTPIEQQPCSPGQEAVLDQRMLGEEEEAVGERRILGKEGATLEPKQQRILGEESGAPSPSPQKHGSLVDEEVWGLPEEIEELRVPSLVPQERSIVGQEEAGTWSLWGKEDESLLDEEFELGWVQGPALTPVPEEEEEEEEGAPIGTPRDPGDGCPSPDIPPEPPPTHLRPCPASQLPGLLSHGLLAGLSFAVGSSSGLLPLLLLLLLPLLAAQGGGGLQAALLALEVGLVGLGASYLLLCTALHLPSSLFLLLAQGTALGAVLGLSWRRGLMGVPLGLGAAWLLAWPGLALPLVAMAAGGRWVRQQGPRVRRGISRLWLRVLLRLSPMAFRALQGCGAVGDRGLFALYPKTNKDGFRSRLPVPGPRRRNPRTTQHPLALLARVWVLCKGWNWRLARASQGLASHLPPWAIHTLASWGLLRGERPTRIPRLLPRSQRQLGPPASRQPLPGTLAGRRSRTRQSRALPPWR

[4] = target: Calcium/calmodulin-dependent protein kinase type II subunit beta (Homo sapiens) (UniProt Q13554); conditions: Compound concentration 1000.0 nM
[5] = target: Mitogen-activated protein kinase 7 (Homo sapiens) (UniProt Q13164); conditions: Compound concentration 1000.0 nM
[6] = target: Ribosomal protein S6 kinase beta-1 (Homo sapiens) (UniProt P23443); conditions: Compound concentration 1000.0 nM
[7] = target: Serine/threonine-protein kinase pim-2 (Homo sapiens) (UniProt Q9P1W9); conditions: Compound concentration 1000.0 nM
[8] = target: Phosphatidylinositol 4-kinase beta (Homo sapiens) (UniProt Q9UBF8); conditions: Compound concentration 1000.0 nM
[9] = tested on: ALK tyrosine kinase receptor (Homo sapiens), Q9UM73 [C1156Y]; conditions: Compound concentration 1000.0 nM
[10] = target: Citron Rho-interacting kinase (Homo sapiens) (UniProt O14578); conditions: Compound concentration 1000.0 nM
[11] = target: Ephrin type-A receptor 4 (Homo sapiens) (UniProt P54764); conditions: Compound concentration 1000.0 nM
[12] = target: Cyclin-dependent kinase 16 (Homo sapiens) (UniProt Q00536); conditions: Compound concentration 1000.0 nM
[13] = target: T2, Tyrosine-protein kinase TXK (Homo sapiens) (UniProt P42681); conditions: Compound concentration 1000.0 nM
T2 sequence (whole entry): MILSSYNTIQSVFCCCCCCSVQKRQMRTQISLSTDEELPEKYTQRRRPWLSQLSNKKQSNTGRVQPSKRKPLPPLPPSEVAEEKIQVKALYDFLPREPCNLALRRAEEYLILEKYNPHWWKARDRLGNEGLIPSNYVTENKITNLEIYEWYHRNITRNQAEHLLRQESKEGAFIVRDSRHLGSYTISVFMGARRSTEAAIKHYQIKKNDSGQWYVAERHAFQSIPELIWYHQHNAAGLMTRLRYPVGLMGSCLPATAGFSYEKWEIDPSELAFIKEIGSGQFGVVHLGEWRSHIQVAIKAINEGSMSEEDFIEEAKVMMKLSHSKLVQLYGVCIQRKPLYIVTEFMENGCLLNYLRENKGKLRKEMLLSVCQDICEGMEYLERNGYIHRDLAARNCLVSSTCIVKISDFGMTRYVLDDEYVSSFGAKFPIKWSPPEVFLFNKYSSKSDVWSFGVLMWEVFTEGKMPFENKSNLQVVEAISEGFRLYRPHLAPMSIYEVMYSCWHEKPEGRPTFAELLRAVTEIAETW

[14] = target: Serine/threonine-protein kinase PRP4 homolog (Homo sapiens) (UniProt Q13523); conditions: Compound concentration 1000.0 nM
[15] = target: Ankyrin repeat and protein kinase domain-containing protein 1 (Homo sapiens) (UniProt Q8NFD2); conditions: Compound concentration 1000.0 nM
[16] = target: Mitogen-activated protein kinase kinase kinase 11 (Homo sapiens) (UniProt Q16584); conditions: Compound concentration 1000.0 nM
[17] = target: Membrane-associated tyrosine- and threonine-specific cdc2-inhibitory kinase (Homo sapiens) (UniProt Q99640); conditions: Compound concentration 1000.0 nM
[18] = target: Muscarinic acetylcholine receptor M1 (Homo sapiens) (UniProt P11229); conditions: Compound concentration 10.0 uM
[19] = target: Tyrosine-protein kinase CSK (Homo sapiens) (UniProt P41240); conditions: Compound concentration 1000.0 nM
[20] = target: Tyrosine-protein kinase ABL1 (Homo sapiens) (UniProt P00519); conditions: Compound concentration 1000.0 nM
[21] = target: Myosin light chain kinase, smooth muscle (Homo sapiens) (UniProt Q15746); conditions: Compound concentration 1000.0 nM

Sequence of Ribosomal protein S6 kinase beta-1 (Homo sapiens) (P23443 whole entry, looked up): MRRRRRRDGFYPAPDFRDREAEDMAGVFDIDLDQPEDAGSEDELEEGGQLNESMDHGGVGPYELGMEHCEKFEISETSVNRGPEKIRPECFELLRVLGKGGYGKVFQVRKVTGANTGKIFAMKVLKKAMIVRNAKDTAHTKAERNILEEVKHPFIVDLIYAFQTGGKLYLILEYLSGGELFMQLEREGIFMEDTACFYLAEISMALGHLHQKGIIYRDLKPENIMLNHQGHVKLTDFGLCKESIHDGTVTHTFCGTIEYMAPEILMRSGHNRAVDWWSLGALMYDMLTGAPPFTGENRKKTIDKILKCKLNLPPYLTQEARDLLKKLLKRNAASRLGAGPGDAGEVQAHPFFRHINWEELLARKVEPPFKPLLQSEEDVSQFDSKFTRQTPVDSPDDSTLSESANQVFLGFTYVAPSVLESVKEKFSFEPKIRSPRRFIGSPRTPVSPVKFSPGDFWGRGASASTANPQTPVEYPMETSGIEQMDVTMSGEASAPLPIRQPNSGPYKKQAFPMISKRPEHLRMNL
Sequence of Phosphatidylinositol 4-kinase beta (Homo sapiens) (Q9UBF8 2-816 limits assumed): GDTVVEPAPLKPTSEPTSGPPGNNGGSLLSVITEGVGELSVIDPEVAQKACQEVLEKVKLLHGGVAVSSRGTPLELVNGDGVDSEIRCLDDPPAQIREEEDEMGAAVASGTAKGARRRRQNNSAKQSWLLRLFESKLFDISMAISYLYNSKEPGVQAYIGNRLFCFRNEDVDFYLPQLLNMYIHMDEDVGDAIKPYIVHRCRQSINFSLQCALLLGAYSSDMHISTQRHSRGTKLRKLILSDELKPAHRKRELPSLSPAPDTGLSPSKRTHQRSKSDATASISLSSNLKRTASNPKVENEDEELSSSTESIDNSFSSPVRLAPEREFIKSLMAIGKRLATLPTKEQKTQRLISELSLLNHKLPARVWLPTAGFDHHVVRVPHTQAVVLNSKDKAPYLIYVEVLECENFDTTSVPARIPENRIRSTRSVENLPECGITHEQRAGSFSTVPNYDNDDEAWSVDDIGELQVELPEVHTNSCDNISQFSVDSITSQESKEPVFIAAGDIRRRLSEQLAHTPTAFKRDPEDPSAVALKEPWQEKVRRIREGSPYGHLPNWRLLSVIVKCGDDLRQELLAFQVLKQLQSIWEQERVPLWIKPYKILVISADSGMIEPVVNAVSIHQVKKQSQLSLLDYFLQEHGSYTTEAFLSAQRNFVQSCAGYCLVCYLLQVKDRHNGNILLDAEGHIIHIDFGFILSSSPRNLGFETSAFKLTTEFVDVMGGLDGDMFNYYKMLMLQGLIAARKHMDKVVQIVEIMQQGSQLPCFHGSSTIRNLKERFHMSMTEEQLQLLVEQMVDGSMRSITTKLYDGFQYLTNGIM
Sequence of Cyclin-dependent kinase 4 (Homo sapiens) (P11802 whole entry): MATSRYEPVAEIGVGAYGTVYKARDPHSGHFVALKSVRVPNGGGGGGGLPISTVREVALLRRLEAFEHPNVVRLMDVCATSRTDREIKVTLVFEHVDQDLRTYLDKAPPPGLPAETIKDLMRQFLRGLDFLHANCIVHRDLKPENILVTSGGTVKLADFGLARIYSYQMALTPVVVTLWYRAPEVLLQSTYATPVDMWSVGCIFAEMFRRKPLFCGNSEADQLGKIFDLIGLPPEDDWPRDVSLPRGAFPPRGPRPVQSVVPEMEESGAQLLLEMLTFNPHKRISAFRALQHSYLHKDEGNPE
Sequence of Mitogen-activated protein kinase 7 (Homo sapiens) (Q13164 2-816 limits assumed): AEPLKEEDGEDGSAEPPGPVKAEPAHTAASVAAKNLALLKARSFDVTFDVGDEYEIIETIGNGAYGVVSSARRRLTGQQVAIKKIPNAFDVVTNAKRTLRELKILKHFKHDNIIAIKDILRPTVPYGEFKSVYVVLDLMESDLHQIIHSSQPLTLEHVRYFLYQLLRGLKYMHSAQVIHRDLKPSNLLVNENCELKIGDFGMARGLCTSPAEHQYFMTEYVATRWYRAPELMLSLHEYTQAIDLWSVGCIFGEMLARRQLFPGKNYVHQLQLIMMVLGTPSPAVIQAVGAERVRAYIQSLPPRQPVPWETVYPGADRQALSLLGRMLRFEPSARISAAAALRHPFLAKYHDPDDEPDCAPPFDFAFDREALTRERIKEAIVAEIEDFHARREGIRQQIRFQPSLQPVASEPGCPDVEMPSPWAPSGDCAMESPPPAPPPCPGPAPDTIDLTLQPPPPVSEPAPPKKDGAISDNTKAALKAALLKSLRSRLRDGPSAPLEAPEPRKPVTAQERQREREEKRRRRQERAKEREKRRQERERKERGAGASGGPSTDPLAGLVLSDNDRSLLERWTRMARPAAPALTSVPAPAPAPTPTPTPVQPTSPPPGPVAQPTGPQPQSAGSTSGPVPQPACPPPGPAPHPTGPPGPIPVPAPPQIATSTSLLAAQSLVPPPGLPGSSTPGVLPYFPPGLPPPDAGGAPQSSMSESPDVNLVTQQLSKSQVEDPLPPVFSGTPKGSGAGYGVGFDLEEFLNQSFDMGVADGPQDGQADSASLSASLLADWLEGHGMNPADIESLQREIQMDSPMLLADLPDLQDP
Sequence of Cyclin-dependent kinase 16 (Homo sapiens) (Q00536 whole entry): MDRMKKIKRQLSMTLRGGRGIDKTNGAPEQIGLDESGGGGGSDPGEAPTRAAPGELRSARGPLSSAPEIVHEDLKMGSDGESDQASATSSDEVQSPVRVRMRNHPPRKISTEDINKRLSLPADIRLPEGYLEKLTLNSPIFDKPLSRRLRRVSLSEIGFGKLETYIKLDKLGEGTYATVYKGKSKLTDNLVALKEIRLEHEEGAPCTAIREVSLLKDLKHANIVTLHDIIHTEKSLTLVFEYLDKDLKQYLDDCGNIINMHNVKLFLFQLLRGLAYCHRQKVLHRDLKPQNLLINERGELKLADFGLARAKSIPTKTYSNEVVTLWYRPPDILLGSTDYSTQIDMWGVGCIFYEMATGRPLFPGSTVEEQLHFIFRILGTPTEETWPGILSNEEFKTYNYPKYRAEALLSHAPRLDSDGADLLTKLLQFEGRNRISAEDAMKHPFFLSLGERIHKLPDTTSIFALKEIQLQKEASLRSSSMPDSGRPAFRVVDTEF
Sequence of Tyrosine-protein kinase ABL1 (Homo sapiens) (P00519 whole entry): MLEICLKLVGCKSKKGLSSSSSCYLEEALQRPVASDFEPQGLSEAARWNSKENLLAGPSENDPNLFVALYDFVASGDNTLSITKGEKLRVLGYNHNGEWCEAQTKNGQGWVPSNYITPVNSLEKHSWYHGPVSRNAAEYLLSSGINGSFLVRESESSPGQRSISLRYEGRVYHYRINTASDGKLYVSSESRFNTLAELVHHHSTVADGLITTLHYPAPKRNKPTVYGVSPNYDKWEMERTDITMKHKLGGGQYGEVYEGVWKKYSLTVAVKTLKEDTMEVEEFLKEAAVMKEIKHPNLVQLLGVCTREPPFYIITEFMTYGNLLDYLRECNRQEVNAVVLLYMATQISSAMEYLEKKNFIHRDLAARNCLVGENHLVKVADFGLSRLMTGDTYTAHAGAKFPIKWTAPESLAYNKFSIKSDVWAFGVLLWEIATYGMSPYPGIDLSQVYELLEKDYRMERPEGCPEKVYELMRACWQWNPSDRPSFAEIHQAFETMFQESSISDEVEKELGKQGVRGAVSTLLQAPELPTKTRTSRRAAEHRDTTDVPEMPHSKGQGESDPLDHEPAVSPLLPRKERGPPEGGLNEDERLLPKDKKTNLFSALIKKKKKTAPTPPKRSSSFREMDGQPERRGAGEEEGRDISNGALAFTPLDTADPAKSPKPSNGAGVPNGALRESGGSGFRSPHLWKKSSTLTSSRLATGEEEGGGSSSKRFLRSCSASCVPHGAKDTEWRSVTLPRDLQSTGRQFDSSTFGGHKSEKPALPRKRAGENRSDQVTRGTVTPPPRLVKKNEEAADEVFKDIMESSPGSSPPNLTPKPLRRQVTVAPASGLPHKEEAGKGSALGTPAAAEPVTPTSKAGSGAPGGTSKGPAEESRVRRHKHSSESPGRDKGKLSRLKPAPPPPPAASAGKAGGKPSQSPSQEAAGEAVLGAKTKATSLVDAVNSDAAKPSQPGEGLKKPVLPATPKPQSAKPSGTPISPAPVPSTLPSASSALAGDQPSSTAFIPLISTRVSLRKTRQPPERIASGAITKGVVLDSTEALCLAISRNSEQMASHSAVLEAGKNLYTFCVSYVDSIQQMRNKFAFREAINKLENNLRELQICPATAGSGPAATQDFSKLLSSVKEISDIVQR
Sequence of Ankyrin repeat and protein kinase domain-containing protein 1 (Homo sapiens) (Q8NFD2 whole entry, the tested form may be a part): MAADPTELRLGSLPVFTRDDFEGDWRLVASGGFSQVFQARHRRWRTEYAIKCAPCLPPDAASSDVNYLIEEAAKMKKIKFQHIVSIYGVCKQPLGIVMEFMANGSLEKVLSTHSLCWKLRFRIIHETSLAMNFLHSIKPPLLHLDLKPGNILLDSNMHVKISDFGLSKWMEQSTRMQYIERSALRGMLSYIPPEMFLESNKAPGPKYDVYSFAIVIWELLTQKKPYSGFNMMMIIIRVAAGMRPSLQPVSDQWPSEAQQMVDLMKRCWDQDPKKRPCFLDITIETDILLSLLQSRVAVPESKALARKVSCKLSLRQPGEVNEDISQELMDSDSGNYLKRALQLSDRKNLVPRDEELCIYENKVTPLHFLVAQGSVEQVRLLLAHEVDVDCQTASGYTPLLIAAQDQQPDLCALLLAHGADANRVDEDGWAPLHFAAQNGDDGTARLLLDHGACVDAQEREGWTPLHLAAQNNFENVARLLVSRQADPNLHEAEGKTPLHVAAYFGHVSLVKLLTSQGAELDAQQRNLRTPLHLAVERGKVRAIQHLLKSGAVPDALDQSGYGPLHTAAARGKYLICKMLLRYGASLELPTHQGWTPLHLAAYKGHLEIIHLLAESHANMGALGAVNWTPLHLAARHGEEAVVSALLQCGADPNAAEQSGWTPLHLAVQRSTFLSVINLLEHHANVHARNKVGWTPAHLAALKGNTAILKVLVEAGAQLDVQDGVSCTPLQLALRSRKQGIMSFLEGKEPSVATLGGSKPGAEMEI

SMILES | residual activity [1] [%] | residual activity [2] [%] | residual activity [3] [%] | residual activity [4] [%] | residual activity [5] [%] | residual activity [6] [%] | residual activity [7] [%] | residual activity [8] [%] | residual activity [9] [%] | residual activity [10] [%] | residual activity [11] [%] | residual activity [12] [%] | residual activity [13] [%] | residual activity [14] [%] | residual activity [15] [%] | residual activity [16] [%] | residual activity [17] [%] | inhibition [18] [%] | residual activity [19] [%] | residual activity [20] [%] | other results
CCc1ccccc1C(=O)Nc1n[nH]c2c(C)c(F)c(C3C(C#N)=C(C)N(C)C(C)=C3C#N)cc12 [BAY-3827] | 100 | 100 | 96 | 73 | 86 | 80 | 99 | 100 | 100 | 90 | 100 | 100 | 84 | 72 | 100 | 88 | 100 | 2.81 | 98 | 88 | residual activity [21]: 55%
CC1=C(C#N)C(c2ccc3c(c2)c(NC(=O)c2ccccc2C)nn3C)C(C#N)=C(C)N1 [BAY-974] | 100 | 73 | 70 | 86 | 100 | 74 | 91 | 30 | 96 | 55 | 93 | 93 | 100 | 77 | 92 | 96 | 99 | -1.37 | 85 | 66 | residual activity [21]: 100%
